Here are results for one molecule from patent publication EP0774458A1, “Substituted benzodicarboxylic acid diguanidines, process for their preparation, and their use as medicament or diagnostic agent” (HOECHST AKTIENGESELLSCHAFT, priority 1995, dated 1997).

Usually IC50 stands for the concentration at which inhibition is half-maximal. A high value points to a need for much substance.

The target in the experiment is T1, Na^+/H^+-Exchangers von Kaninchenerythrocyten (Oryctolagus cuniculus, UniProt P23791).
T1 construct: den Na^+-Influx in die Erythrocyten via Na^+/H^+-Austausch flammenphotometrisch bestimmen zu können; from tissue; host or cells: Erythrocytes in whole blood from the ear arteries of cholesterol-fed White New Zealand rabbits (Ivanovas)
T1 sequence (P23791 whole entry): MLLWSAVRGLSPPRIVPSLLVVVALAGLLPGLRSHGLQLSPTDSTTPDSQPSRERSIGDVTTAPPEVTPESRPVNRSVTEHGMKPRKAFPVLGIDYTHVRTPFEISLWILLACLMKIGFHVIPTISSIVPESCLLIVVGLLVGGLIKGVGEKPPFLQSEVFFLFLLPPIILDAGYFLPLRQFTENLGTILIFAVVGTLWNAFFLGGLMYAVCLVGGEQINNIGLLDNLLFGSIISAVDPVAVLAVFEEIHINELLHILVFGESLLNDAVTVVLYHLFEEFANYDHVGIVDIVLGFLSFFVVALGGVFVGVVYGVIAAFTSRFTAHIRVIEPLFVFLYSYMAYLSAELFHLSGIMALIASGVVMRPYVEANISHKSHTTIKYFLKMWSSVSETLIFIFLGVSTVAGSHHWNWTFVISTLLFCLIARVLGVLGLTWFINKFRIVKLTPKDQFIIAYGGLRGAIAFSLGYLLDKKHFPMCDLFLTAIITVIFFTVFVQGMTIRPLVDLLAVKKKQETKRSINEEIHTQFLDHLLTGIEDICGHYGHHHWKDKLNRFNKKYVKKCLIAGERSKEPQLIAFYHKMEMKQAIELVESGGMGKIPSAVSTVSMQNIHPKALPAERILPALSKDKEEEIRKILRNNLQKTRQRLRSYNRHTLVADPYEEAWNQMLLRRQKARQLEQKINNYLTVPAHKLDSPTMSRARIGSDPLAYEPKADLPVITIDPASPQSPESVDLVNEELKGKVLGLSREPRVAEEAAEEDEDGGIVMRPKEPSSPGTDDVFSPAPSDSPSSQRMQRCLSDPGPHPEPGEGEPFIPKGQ
The experiment is described as follows: Inhibition of the Na+/H+ exchanger of rabbit erythrocytes (amiloride-sensitive sodium influx, flame photometry). The format is cell-based, Weiße Neuseeland-Kaninchen. The note with it: Inhibition des Na^+/H^+-Exchangers, hyperosmolares Salz-Sucrose-Medium, pH 7,4, 37°C. From the text: Inhibition des Na^+/H^+-Exchangers von Kaninchenerythrocyten Weiße Neuseeland-Kaninchen (Ivanovas) erhielten eine Standard-Diät mit 2 % Cholesterin für sechs Wochen, um den Na^+/H^+-Austausch zu aktivieren und so den Na^+-Influx in die Erythrocyten via Na^+/H^+-Austausch flammenphotometrisch bestimmen zu können. Das Blut wurde den Ohrarterien entnommen und durch 25 IE Kalium-Heparin ungerinnbar gemacht. Ein Teil jeder Probe wurde zur Doppelbestimmung des Hämatokrits durch Zentrifugieren benutzt. Aliquots von jeweils 100 µl dienten zur Messung des Na^+-Ausgangsgehalts der Erythrocyten.
Um den Amilorid-sensitiven Natrium-Influx zu bestimmen, wurden 100 µl jeder Blutprobe in jeweils 5 ml eines hyperosmolaren Salz-Sucrose-Mediums (mmol/l: 140 NaCl, 3 KCl, 150 Sucrose, 0,1 Ouabain, 20 Tris-hydroxymethylaminomethan) bei pH 7,4 und 37°C inkubiert. Die Erythrocyten wurden danach dreimal mit eiskalter MgCl2-Ouabain-Lösung (mmol/l: 112 MgCl2, 0,1 Ouabain) gewaschen und in 2,0 ml destilliertem Wasser hämolysiert. Der intrazelluläre Natriumgehalt wurde flammenphotometrisch bestimmt.
Der Na^+-Nettoinflux wurde aus der Differenz zwischen Natrium-Ausgangswerten und dem Natriumgehalt der Erythrocyten nach Inkubation errechnet. Der Amilorid-hemmbare Natrium-Influx ergab sich aus der Differenz des Natriumgehalts der Erythrocyten nach Inkubation mit und ohne Amilorid 3 x 10-4 mol/l. […]

Regarding `NC(N)=NC(=O)c1cc(C(=O)N=C(N)N)c(Cl)c(-c2ccccc2)c1` [Beispiel 1, 4-Chlor-5-phenyl-isophthalsäure-diguanidid], inhibition was half-maximal at 900 µM (IC50).
